# Results published in patent publication US9181235B2, “Substituted pyridines for modulating the WNT signaling pathway” (NOVARTIS AG, priority 2010, dated 2015).
# Tested on: Wnt signaling
# Assay: Wnt-Luc reporter assay for pathway inhibition of Wnt signaling
# Type: cell-based, mouse (TM3 Wnt-Luc) or human (293 Wnt-Luc); not stated which
# Details: Wnt-Luc reporter cells co-cultured with L-cell Wnt3a cells, 24 hours, luciferase signal reduced by 50%
# Description: This example provides a method that is useful for evaluating test compounds for inhibition of Wnt signaling.
# Mouse leydig cell TM3 cells (obtained from American Type Culture Collection, ATCC, Manassas, Va.) are cultured in 1:1 mixture of Ham's F12 medium and Dulbecco's modified Eagle's medium (Gibco/Invitrogen, Carlsbad, Calif.) supplemented with 2.5% FBS (Gibco/Invitrogen, Carlsbad, Calif.) and 5% horse serum (Gibco/Invitrogen, Carlsbad, Calif.), 50 unit/mL penicillin and 50 μg/mL of streptomycin (Gibco/Invitrogen, Carlsbad, Calif.) at 37° C. with 5% CO2 in air atmosphere. TM3 cells in a 10 cm dish are co-transfected with 8 μg of STF-reporter plasmid containing a luciferase gene driven by Wnt-responsive elements and 2 μg of pcDNA3.1-Neo (Gibco/Invitrogen, Carlsbad, Calif.) with 30 μL of FuGENE6 (Roche Diagnostics, Indianapolis, Ind.) following the manufacturer's protocol. Stable cell lines (TM3 Wnt-Luc) were selected with 400 μg/mL of G418 (Gibco/Invitrogen, Carlsbad, Calif.). The TM3 Wnt-Luc cells and L-cell Wnt3a cells (obtained from American Type Culture Collection, ATCC, Manassas, Va.; cultured in Dulbecco's modified Eagle's medium (Gibco/Invitrogen, Carlsbad, Calif.) supplemented with 10% FBS (Gibco/Invitrogen, Carlsbad, Calif.) and 50 unit/mL penicillin and 50 μg/mL of streptomycin (Gibco/Invitrogen, Carlsbad, Calif.) at 37° C. with 5% CO2 in air atmosphere) are trypsinized and co-cultured into a 384-well plate with DMEM medium supplemented with 2% FBS, and treated with different concentrations of a compound of the invention. After 24 hours, the firefly luciferase activities are assayed with the Bright-Glo™ Luciferase Assay System (Promega, Madison, Wis.). The IC50 is measured when the effect of the compound reduces the luminescence signal by 50%.
# This example provides another method that is useful for evaluating test compounds for inhibition of Wnt signaling.
# Human embryonic kidney 293 cells (obtained from American Type Culture Collection, ATCC, Manassas, Va.) are cultured in DMEM medium (Gibco/Invitrogen, Carlsbad, Calif.) supplemented with 10% FBS (Gibco/Invitrogen, Carlsbad, Calif.), 50 unit/mL penicillin and 50 μg/mL of streptomycin (Gibco/Invitrogen, Carlsbad, Calif.) at 37° C. with 5% CO2 in air atmosphere. 293 cells in a 10 cm dish are co-transfected with 8 μg of STF-reporter plasmid containing a luciferase gene driven by Wnt-responsive elements and 2 μg of pcDNA3.1-Neo (Gibco/Invitrogen, Carlsbad, Calif.) with 30 μL of FuGENE6 (Roche Diagnostics, Indianapolis, Ind.) following the manufacturer's protocol. Stable cell lines (293 Wnt-Luc) were selected with 400 μg/mL of G418 (Gibco/Invitrogen, Carlsbad, Calif.). The 293 Wnt-Luc cells and L-cell Wnt3a cells (obtained from American Type Culture Collection, ATCC, Manassas, Va.) are trypsinized and co-cultured into a 384-well plate with DMEM medium supplemented with 2% FBS, and treated with different concentrations of a compound of the invention. After 24 hours, the firefly luciferase activities are assayed with the Bright-Glo™ Luciferase Assay System (Promega, Madison, Wis.). The IC50 is measured when the effect of the compound reduces the luminescence signal by 50%.
row,SMILES,IC50 [nM]
1,"Cc1c(F)cccc1-c1ccc(C(=O)NCc2ccc(-c3ccnc(C(F)(F)F)c3)nc2)nc1 [compound 64, 5-(3-fluoro-2-methylphenyl)-N-({6-[2-(trifluoromethyl)pyridin-4-yl]pyridin-3-yl}methyl)pyridine-2-carboxamide]",11
2,"Cc1ccc(F)cc1-c1ccc(C(=O)NCc2ccc(-c3ccnc(C(F)(F)F)c3)nc2)nc1 [compound 65, 5-(5-fluoro-2-methylphenyl)-N-({6-[2-(trifluoromethyl)pyridin-4-yl]pyridin-3-yl}methyl)pyridine-2-carboxamide]",5.8
3,"Cc1cc(CNC(=O)c2ccc(-c3cnccn3)cn2)cnc1-c1cc[nH]c(=O)c1 [compound 66, N-((5-Methyl-6-(2-oxo-1,2-dihydropyridin-4-yl)pyridin-3-yl)methyl)-5-(pyrazin-2-yl)picolinamide]",45
4,"Cc1ncccc1-c1ccc(C(=O)NCc2ccc(-c3ccnc(C(F)(F)F)c3)nc2)nc1 [compound 67, 5-(2-methylpyridin-3-yl)-N-({6-[2-(trifluoromethyl)pyridin-4-yl]pyridin-3-yl}methyl)pyridine-2-carboxamide]",6
5,"O=C(NCc1ccc(N2CCS(=O)(=O)CC2)nc1)c1ccc(-c2cnccn2)cn1 [compound 68, N-((6-(1,1-dioxidothiomorpholino)pyridin-3-yl)methyl)-5-(pyrazin-2-yl)picolinamide]",38
6,"O=C(NCc1ccc(N2CCS(=O)(=O)CC2)nc1)c1ccc(-c2cnccn2)nc1 [compound 69, N-((6-(1,1-dioxidothiomorpholino)pyridin-3-yl)methyl)-6-(pyrazin-2-yl)nicotinamide]",88
7,"Cc1cc(C(=O)NCc2cnc(-c3ccnc(C(F)(F)F)c3)c(C)c2)ccc1-c1ncccc1C [compound 70, 3-methyl-N-({5-methyl-6-[2-(trifluoromethyl)pyridin-4-yl]pyridin-3-yl}methyl)-4-(3-methylpyridin-2-yl)benzamide]",27
8,"O=C(NCc1cnc(-c2ccnnc2)c(F)c1)c1ccc(-c2cnccn2)cn1 [compound 71, N-{[5-fluoro-6-(pyridazin-4-yl)pyridin-3-yl]methyl}-5-(pyrazin-2-yl)pyridine-2-carboxamide]",2.5
9,"O=C(NCc1ccc(-c2ccnc(C(F)(F)F)c2)nc1)c1ccc(-c2ccc(N3CCCC3=O)nc2)cn1 [compound 72, 6′-(2-Oxopyrrolidin-1-yl)-N-((2′-(trifluoromethyl)-[2,4′-bipyridin]-5-yl)methyl)-[3,3′-bipyridine]-6-carboxamide]",1.9
10,"Cc1cccnc1-c1ccc(C(=O)NCc2ccc(-c3ccnc(C(F)(F)F)c3)nc2)nc1 [compound 73, 5-(3-methylpyridin-2-yl)-N-({6-[2-(trifluoromethyl)pyridin-4-yl]pyridin-3-yl}methyl)pyridine-2-carboxamide]",6
11,"Cc1cccnc1-c1ccc(C(=O)NCc2cnc(-c3ccnc(C(F)(F)F)c3)c(C)c2)nc1 [compound 74, N-({5-methyl-6-[2-(trifluoromethyl)pyridin-4-yl]pyridin-3-yl}methyl)-5-(3-methylpyridin-2-yl)pyridine-2-carboxamide]",32
12,"Cc1cc(-c2ncc(CNC(=O)c3ccc(-c4ncccc4C)cn3)cc2F)ccn1 [compound 75, N-{[5-fluoro-6-(2-methylpyridin-4-yl)pyridin-3-yl]methyl}-5-(3-methylpyridin-2-yl)pyridine-2-carboxamide]",6.9
13,"Cc1cc(-c2ncc(CNC(=O)c3ccc(-c4cc(F)ccc4C)cn3)cc2F)ccn1 [compound 76, 5-(5-fluoro-2-methylphenyl)-N-{[5-fluoro-6-(2-methylpyridin-4-yl)pyridin-3-yl]methyl}pyridine-2-carboxamide]",1.2
14,"Cc1ccc(F)cc1-c1ccc(C(=O)NCc2cnc(-c3ccnc(C(F)(F)F)c3)c(C)c2)nc1 [compound 77, 5-(5-fluoro-2-methylphenyl)-N-({5-methyl-6-[2-(trifluoromethyl)pyridin-4-yl]pyridin-3-yl}methyl)pyridine-2-carboxamide]",6.3
15,"Cc1cc(C(=O)NCc2cnc(-c3ccnc(C(F)(F)F)c3)c(C)c2)ccc1-c1cnccn1 [compound 78, 3-methyl-N-({5-methyl-6-[2-(trifluoromethyl)pyridin-4-yl]pyridin-3-yl}methyl)-4-(pyrazin-2-yl)benzamide]",13
16,"Cc1cc(C(=O)NCc2cnc(-c3ccnc(C(F)(F)F)c3)c(C)c2)ncc1-c1cnccn1 [compound 79, 4-methyl-N-({5-methyl-6-[2-(trifluoromethyl)pyridin-4-yl]pyridin-3-yl}methyl)-5-(pyrazin-2-yl)pyridine-2-carboxamide]",982
17,"Cc1cc(-c2ncc(CNC(=O)c3ccc(-c4cc(F)ccc4C)cn3)cc2C)ccn1 [compound 80, 5-(5-fluoro-2-methylphenyl)-N-{[5-methyl-6-(2-methylpyridin-4-yl)pyridin-3-yl]methyl}pyridine-2-carboxamide]",4.2
18,"Cc1cc(-c2cnc(CNC(=O)c3ccc(-c4cnccn4)cn3)c(C)c2)ccn1 [compound 81, N-((2′,5-dimethyl-3,4′-bipyridin-6-yl)methyl)-5-(pyrazin-2-yl)picolinamide]",20
19,"Cc1cc(C(=O)NCc2cnc(-c3ccnc(C(F)(F)F)c3)c(C)c2)ncc1-c1cc(F)ccc1C [compound 82, 5-(5-fluoro-2-methylphenyl)-4-methyl-N-({5-methyl-6-[2-(trifluoromethyl)pyridin-4-yl]pyridin-3-yl}methyl)pyridine-2-carboxamide]",441
20,"Cc1cc(C(=O)NCc2cnc(-c3ccnc(C(F)(F)F)c3)c(C)c2)ncc1-c1cccc(F)c1 [compound 83, 5-(3-fluorophenyl)-4-methyl-N-({5-methyl-6-[2-(trifluoromethyl)pyridin-4-yl]pyridin-3-yl}methyl)pyridine-2-carboxamide]",812
21,"CC(=O)N1CCN(c2ccc(C(=O)NCc3cnc(-c4ccnc(C(F)(F)F)c4)c(F)c3)nc2)CC1 [compound 84, 5-(4-Acetylpiperazin-1-yl)-N-((3-fluoro-2′-(trifluoromethyl)-2,4′-bipyridin-5-yl)methyl)picolinamide]",2.7
22,"O=C(NCc1cnc(-c2ccnc(C(F)(F)F)c2)c(F)c1)c1ccc(-c2cnccn2)cn1 [compound 85, N-({5-fluoro-6-[2-(trifluoromethyl)pyridin-4-yl]pyridin-3-yl}methyl)-5-(pyrazin-2-yl)pyridine-2-carboxamide]",0.22
23,"Cc1cc(-c2cnc(CNC(=O)c3ccc(-c4cnccn4)cn3)cc2C)ccn1 [compound 86, N-{[4-methyl-5-(2-methylpyridin-4-yl)pyridin-2-yl]methyl}-5-(pyrazin-2-yl)pyridine-2-carboxamide]",17
24,"Cc1cc(-c2cnccn2)cnc1C(=O)NCc1ccc(-c2ccnc(C(F)(F)F)c2)nc1 [compound 87, 3-methyl-5-(pyrazin-2-yl)-N-({6-[2-(trifluoromethyl)pyridin-4-yl]pyridin-3-yl}methyl)pyridine-2-carboxamide]",16
25,"Cc1cc(-c2ncc(CNC(=O)c3ccn(-c4cccc(F)c4)c(=O)c3)cc2C)ccn1 [compound 88, 1-(3-fluorophenyl)-N-{[5-methyl-6-(2-methylpyridin-4-yl)pyridin-3-yl]methyl}-2-oxo-1,2-dihydropyridine-4-carboxamide]",4.4
